In patent US20230263822A1, “MODULATION OF FACTOR 11 EXPRESSION” (Ionis Pharmaceuticals, Inc., priority 2008, published 2023):
Where two headings read alike, the source gives them in different places.

Columns and labels:
Factor 11 mRNA = Factor 11 mRNA in liver, FeCl3 induced venous thrombosis model vs Apixaban (Example 14); type: in vivo, BALB/c mice; details: for % inhibition of Factor 11 mRNA in liver relative to PBS control: FeCl3 VT model
Procedure: ISIS 404071 and Apixaban were evaluated in the FeCl3 induced VT mouse model. […] Two days after receiving the last dose of ISIS 404071, mice were anesthetized with 150 mg/kg ketamine mixed with 10 mg/kg xylazine administered by intraperitoneal injection. […] Twenty minutes after receiving Apixaban, mice were anesthetized with 150 mg/kg ketamine mixed with 10 mg/kg xylazine administered by intraperitoneal injection. […] Two days after the last dose of PBS, mice in both groups were anesthetized with 150 mg/kg ketamine mixed with 10 mg/kg xylazine administered by intraperitoneal injection. Thrombus formation was induced with FeCl3 in all of the mice except the first control group.
In mice undergoing FeCl3 treatment, thrombus formation was induced by applying a piece of filter paper (2×4 mm) pre-saturated with 10% FeCl3 solution directly on the vena cava. After 3 minutes of exposure, the filter paper was removed. Thirty minutes after the filter paper application, a fixed length of the vein containing the thrombus was dissected out for platelet analysis. Liver was collected for RNA analysis.
RNA was extracted from liver tissue for real-time PCR analysis of Factor 11. Results are presented as percent inhibition of Factor 11, relative to PBS control.

[1] = set-up: species or system BALB/c mice; details: mouse, in vivo; for Blood (tail bleeding, collected over 40 minutes): sc
Procedure: ISIS 404071 and Apixaban were evaluated in the tail bleeding model.
The saline filled tubes were weighed before and after bleeding.

blood coagulation [2] = experiment: Ex vivo PT and aPTT in murine plasma, ISIS 404071 with LOVENOX (Example 16); set-up: species or system BALB/c mice; details: for PT INR in murine plasma / aPTT INR in murine plasma: LOVENOX 0
Procedure: A control mouse group was treated with PBS, administered twice a week for 3 weeks. Five days after the last dose, the mice were sacrificed and plasma was collected. The low-molecular-weight (LMW) heparin, LOVENOX, was administered to the plasma ex vivo at varying concentrations of 0 μg/ml, 2.5 μg/ml, 5.0 μg/ml, and 7.5 μg/ml. PT and aPTT were measured 20 minutes after LOVENOX was administered.

[3] = test system: mesenteric vein thrombosis; experiment: Mesenteric vein thrombosis, intravital microscopy (Example 22); type: in vivo; details: C57BL/6 mice, 50 mg/kg s.c. twice a week for three weeks
Procedure: In a first cohort, ISIS 404071 was administered subcutaneously to C57BL/6 mice twice a week for three weeks at a dose of 50 mg/kg. In a second cohort, a control oligonucleotide, ISIS 405277 ([…]; antisense oligonucleotide for Factor 2), incorporated herein as SEQ ID NO: 12 was administered subcutaneously to C57Bl/6 mice twice a week for three weeks at a dose of 50 mg/kg.
Blood was collected from the retro-orbital venous plexus of naïve C57BL/6 mice by puncture and collected in polypropylene tubes containing 300 μl of heparin (30 U/ml). Platelet rich plasma (PRP) was obtained by centrifugation at 1000 rpm for 5 min. The PRP was transferred to fresh tubes containing 2 μl of Prostaglandin I2 (PGI2) (2 μg/ml) and incubated at 37° C. for 5 min. After centrifugation at 2600 rpm, pellets were resuspended in 1 ml modified Tyrode's-HEPES buffer (137 mM NaCl, 0.3 mM Na2HPO4, 2 mM KCl, 12 mM NaHCO3, 5 mM HEPES, 5 mM glucose, 0.35% BSA, pH 7.2) containing 2 μl of PGI2 and incubated at 37° C. for 5 min. The suspended pellet was centrifuged at 2600 rpm for 5 min. To remove PGI2, the washing step was repeated twice and platelets were fluorescently labeled with calcein AM 2.5 μg/mL (Molecular Probes, Eugene, Oreg.) for 10 min at room temperature.
Fluorescently-labeled platelets were injected intravenously in ISIS 404071 treated and control oligonucleotide treated C57BL/6 mice. […] The exposed mesentery was kept moist throughout the experiment by periodic superfusion with warmed (37° C.) PBS. The mesentery was transluminated with a 12V, 100 W, DC stabilized source. Veins were visualized using a Zeiss (Germany) Axiovert 135 inverted microscope (Objective 32X) connected to an SVHS video recorder (AG-6730; Panasonic, Tokyo, Japan) using a CCD video camera (Hamamatsu Photonic Systems, Hamamatsu City, Japan). Centerline erythrocyte velocity (Vrbc) was measured using an optical Doppler velocimeter (Microcirculation Research Institute, Texas A&M College of Medicine, College Station, Tex.). Venular shear rate (τ) was calculated based on Poiseuille's Law for a newtonian fluid, τ=8(Vmean/Dv), where Dv is the diameter of the venule and Vmean is estimated from the measured Vrbc using the empirical correlation Vmean=Vrbc/1.6.
Mesenteric vein thrombosis was performed two days after the last antisense oligonucleotide injection. Thrombosis was induced by applying Whatman paper soaked in a 10% FeCl3 solution for 5 minutes on the mesenteric vein. The vein was monitored for 40 minutes, or until occlusion. The elapsed time before the first thrombus 30-50 μm in diameter and the elapsed time before blood stopped flowing for 30 seconds were observed.

blood coagulation [4] = experiment: Time course of aPTT after one dose (Example 29); type: in vivo, BALB/c mice; details: for aPTT INR: values approximate
Procedure: One dose of 50 mg/kg ISIS 404071 was administered subcutaneously to BALB/c mice. Following ISIS 404071 administration, mice were sacrificed at 12 hours, 1 day, 2 days, 3 days, 4 days, 7 days, 14 days, 28 days, and 56 days. Whole liver was collected for RNA analysis and PPP was collected for aPTT analysis. A control group of mice was treated with one subcutaneous dose of PBS.
aPTT values provided in Table 43 are reported as International Normalized Ratio (INR) values. INR values for aPTT were determined by dividing the aPTT value for ISIS 404071 treated mice by the aPTT for the PBS treated group. This ratio was then raised to the power of the International Sensitivity Index (ISI) of the tissue factor used.

[5] = ISIS 404071 10 mg/kg s.c. twice a week for 3 weeks
[6] = ISIS 404071 20 mg/kg s.c. twice a week for 3 weeks
[7] = ISIS 404071 40 mg/kg s.c. twice a week for 3 weeks
[8] = murine plasma, ISIS 404071 10-40 mg/kg in vivo, LOVENOX 0-7.5 μg/ml ex vivo

Substance: ISIS 404071: antisense oligonucleotide targeted to murine Factor 11 mRNA, TGGTAATCCACTTTCAGAGG, target start site 869 (chemistry not given here)
- Factor 11 mRNA in liver vs PBS control (Factor 11 mRNA; FeCl3 induced VT model, ISIS 404071 1.25-40 mg/kg, Apixaban 0.5-5 mg/kg s.c. once): significant dose-dependent reduction of Factor 11 mRNA
- % inhibition of Factor 11 mRNA in liver relative to PBS control (Factor 11 mRNA; ISIS 404071 1.25 mg/kg subcutaneously twice a week for 3 weeks): 15%
- % inhibition of Factor 11 mRNA in liver relative to PBS control (Factor 11 mRNA; ISIS 404071 5 mg/kg subcutaneously twice a week for 3 weeks): 63%
- % inhibition of Factor 11 mRNA in liver relative to PBS control (Factor 11 mRNA; ISIS 404071 10 mg/kg subcutaneously twice a week for 3 weeks): 76%
- % inhibition of Factor 11 mRNA in liver relative to PBS control (Factor 11 mRNA; ISIS 404071 25 mg/kg subcutaneously twice a week for 3 weeks): 91%
- % inhibition of Factor 11 mRNA in liver relative to PBS control (Factor 11 mRNA; ISIS 404071 50 mg/kg subcutaneously twice a week for 3 weeks): 95%
- bleeding in tail bleeding assay [1]: did not affect bleeding
- Blood (tail bleeding, collected over 40 minutes) ([1]; 1.25 mg/kg): 0.00 g
- Blood (tail bleeding, collected over 40 minutes) ([1]; 5 mg/kg): 0.00 g
- Blood (tail bleeding, collected over 40 minutes) ([1]; 10 mg/kg): 0.04 g
- Blood (tail bleeding, collected over 40 minutes) ([1]; 25 mg/kg): 0.01 g
- Blood (tail bleeding, collected over 40 minutes) ([1]; 50 mg/kg): 0.01 g
- PT INR in murine plasma (blood coagulation [2]; [5]): 0.97 INR
- aPTT INR in murine plasma (blood coagulation [2]; [5]): 1.14 INR
- PT INR in murine plasma (blood coagulation [2]; [6]): 1.00 INR
- aPTT INR in murine plasma (blood coagulation [2]; [6]): 1.28 INR
- PT INR in murine plasma (blood coagulation [2]; [7]): 0.97 INR
- aPTT INR in murine plasma (blood coagulation [2]; [7]): 1.52 INR
- PT (blood coagulation [2]; [8]): does not significantly increase PT
- aPTT (blood coagulation [2]; [8]): also increases aPTT in a dose-dependent manner
- occlusion of veins within 40 minutes after injury [3]: did not occlude
- time of occlusion (occlusive thrombi) ([3]; 10% FeCl3 on mesenteric vein): 29.5 min
- time of thrombus formation (30 μm in diameter) ([3]; 10% FeCl3 on mesenteric vein): 14.8 ± 1.7 min
- aPTT over time (blood coagulation [4]; BALB/c mice, one s.c. dose of 50 mg/kg): progressive decrease of aPTT until day 4 and then progressive increase to pre-treatment levels from day 7 to day 28
- aPTT INR (blood coagulation [4]; day 1 after one dose of 50 mg/kg s.c.): ~1.02 INR
- aPTT INR (blood coagulation [4]; day 2 after one dose of 50 mg/kg s.c.): ~1.12 INR
- aPTT INR (blood coagulation [4]; day 3 after one dose of 50 mg/kg s.c.): ~1.29 INR
- aPTT INR (blood coagulation [4]; day 4 after one dose of 50 mg/kg s.c.): ~1.30 INR
- aPTT INR (blood coagulation [4]; day 7 after one dose of 50 mg/kg s.c.): ~1.25 INR
- aPTT INR (blood coagulation [4]; day 14 after one dose of 50 mg/kg s.c.): ~1.11 INR
- aPTT INR (blood coagulation [4]; day 28 after one dose of 50 mg/kg s.c.): ~1.02 INR
